Test results as given in patent US20020028807A1, “Non-nucleoside reverse transcriptase inhibitors” (priority 2000, published 2002).

How the values were obtained:
[1] = test system: HIV coding for mutant reverse transcriptase K103N/Y181C; test: ELISA (p24) assay of HIV replication in C8166 cell culture, K103N/Y181C virus; type: cell-based, HIV-1; conditions: Human immunodeficiency virus 1, C8166, 72 h, read-out: EC50 K103N/Y181C
Description: (§1) Compounds of the invention were tested for their ability to inhibit HIV replication in cell culture in a 96-well plate assay. Complete RPMI 1640, consisting of RPMI 1640+10% fetal bovine serum, 10 μg/ml gentamycin and 10 μM β-mercaptoethanol was used for dilution of the compound as well as cell growth medium. The T lymphocyte cell line C8166 was infected at a multiplicity of infection of 0.001 with viruses coding for wild-type and mutant reverse transcriptase. Cells were then incubated for three days in the presence of serial dilutions of the compounds of the invention. The supernatant was pooled from eight replica wells and the concentration of extracellular p24 was determined using a commercially available HIV-1 p24 antigen assay kit (Beckman-Coulter®). The level of inhibition (% inhibition) was calculated with the following equation: [formula]

[2] = test system: HIV coding for mutant reverse transcriptase Y188L; test: ELISA (p24) assay of HIV replication in C8166 cell culture, Y188L virus; type: cell-based, HIV-1; conditions: Human immunodeficiency virus 1, C8166, 72 h, read-out: EC50 Y188L
Description: as §1

HIV-1 RT wild-type (WT) = biological target: T1, HIV-1 RT wild-type (WT) (Human immunodeficiency virus type 1 group M subtype B, UniProt P03366); test: Reverse transcriptase (RT) assay, wild-type enzyme; type: biochemical
T1 construct: an HIV RT clone pKRT2 containing only the RT p66 gene regulated by the lac operon/trc promoter; made in house; host or cells: E. coli JM109, vector pKK233-2
Description: (§2) Among the enzymes for which Human Immunodeficiency Virus (HIV-1) encodes is a reverse transcriptase (1), so-named because it transcribes a DNA copy from an RNA template. This activity can be quantitatively measured in a cell-free enzyme assay and is based upon the observation that reverse transcriptase is able to use a synthetic template poly r(C) primed with a biotinylated oligo d(G) to transcribe a radio-labelled DNA strand utilising 3H-dGTP as a substrate. The assay described below utilises the wild-type enzyme (which is the predominant form of the enzyme observed in patients infected with HIV-1) and can also be used with mutant RT enzymes (for example, Y181C, prepared by site-directed mutagenesis in which the tyrosine residue at codon 181 has been replaced by a cysteine residue) in analogous assay conditions. This assay allows compounds to be evaluated for their effectiveness at inhibiting the mutant enzymes.
(§3) Some HIV-1 IIIB clone BH10 RT mutants were provided by Dr. C.-K. Shih (Boehringer Ingelheim Pharmaceutials Inc., U.S.A.) in the vector pKK233-2 (Pharmacia). Briefly an HIV RT clone pKRT2 containing only the RT p66 gene regulated by the lac operon/trc promoter was obtained from Dr. W. Summers (Yale University) (2). A variety of specific amino acid substitutions were introduced into the wild-type RT gene by site-directed mutagenesis. RT clones were subcloned into the pKK233-2 bacterial expression vector. Clones provided included wild-type, Val106Ala, Tyr181Cys, Tyr188Cys, Tyr188Leu, Gly190Ala and Pro236Leu. Others were made in-house by site-directed mutagenesis of the pKK233-2 RT clones including Lys103Asn, Lys103Asn/Tyr181Cys, Lys103Asn/Leu100Ile, Lys103Asn/Pro225His, and Lys103Asn/Val108Ile.
(§4) Purification of recombinant reverse transcriptase was performed using a combination of methods previously described (3). A single colony from a fresh plate of transformed JM109 cells was used to initiate growth of a pre-culture grown o/n at 37° C. Two liters of growth medium were inoculated with this pre-culture. At OD600˜1.5 (5-6 h at 37° C.), RT gene expression was induced with IPTG (1 mM final), and the fermentation was continued for a few more hours at 37° C. After centrifugation, supernatants were discarded while cell pellets were pooled and stored at −80° C. until purification. Cells were thawed at 4° C. overnight and suspended in lysis buffer (MES 50 mM pH 6, EDTA 1 mM, 10% v/v glyerol, 0.02% w/v OBG, 0.02% w/v sodium azide). Lysozyme was added and the mixture was incubated on ice for 40 minutes. After homogenization using a bounce in presence of lysozyme and sonication, the cells were centrifuged for 30 minutes. Supernatant (S1) was saved and stored at 4° C. The centrifuged pellet was resuspended in extraction buffer (MES 50 mM pH 6, KPO4 50 mM pH 6, KCl 100 mM, 10% v/v glycerol, 0.02% w/v OBG, 0.02% w/v sodium axide) and stirred for 30 minutes at 4° C. This second mixture was centrifuged again and the supernatant (S2) was saved. The above procedure was repeated 2 more times saving supernatants S3 and S4 and one last extraction was performed overnight (S5). Polymin P (0.005% final) was added to the combined supernatants to remove nucleic acids. This solution was stirred for 75 minutes at 4° C. and centrifuged for 1 h. The supernatant (SS1) was precipitated on ice with 20% w/v ammonium sulfate and stirred for 1 h at 4° C. The mixture was then centrifuged and the resulting supernatant (SS2) was precipitated with additional 40% w/v ammonium sulfate (60% total), stirred for 1 h and centrifuged again. The final pellet (P1) was stored overnight at 4° C. before undergoing purification the following day. All steps of the purification were performed at 4° C. unless otherwise stated.
(§5) Pellet (P1) was resuspended into MES 50 mM pH 6, KPO4 10 mM pH 6, KCl 100 mM, 10% v/v glycerol, 0.02% w/v OBG, 0.02% w/v sodium azide. The suspension was dialysis against the same buffer overnight using 12-14 kD MWCO dialysis tubing. […]

HIV-1 RT K103N/P225H = biological target: T2, HIV-1 RT K103N/P225H (Human immunodeficiency virus type 1 group M subtype B, UniProt P03366, K702N/P824H); test: Reverse transcriptase (RT) assay, K103N/P225H mutant; type: biochemical
T2 construct: an HIV RT clone pKRT2 containing only the RT p66 gene regulated by the lac operon/trc promoter; made in house; host or cells: E. coli JM109, vector pKK233-2
Description: as §2, §3, §4, §5

HIV-1 RT K103N/L100I = biological target: T3, HIV-1 RT K103N/L100I (Human immunodeficiency virus type 1 group M subtype B, UniProt P03366, K702N/L699I); test: Reverse transcriptase (RT) assay, K103N/L100I mutant; type: biochemical
T3 construct: an HIV RT clone pKRT2 containing only the RT p66 gene regulated by the lac operon/trc promoter; made in house; host or cells: E. coli JM109, vector pKK233-2
Description: as §2, §3, §4, §5

[3] = test system: HIV coding for mutant reverse transcriptase V106A; test: ELISA (p24) assay of HIV replication in C8166 cell culture, V106A virus; type: cell-based, HIV-1; conditions: Human immunodeficiency virus 1, C8166, 72 h, read-out: EC50 V106A
Description: as §1

HIV-1 RT K103N/V108I = biological target: T4, HIV-1 RT K103N/V108I (Human immunodeficiency virus type 1 group M subtype B, UniProt P03366, K702N/V707I); test: Reverse transcriptase (RT) assay, K103N/V108I mutant; type: biochemical
T4 construct: an HIV RT clone pKRT2 containing only the RT p66 gene regulated by the lac operon/trc promoter; made in house; host or cells: E. coli JM109, vector pKK233-2
Description: as §2, §3, §4, §5

[4] = test system: HIV coding for wild-type reverse transcriptase (WT RT); test: ELISA (p24) assay of HIV replication in C8166 cell culture, wild-type RT virus; type: cell-based, HIV-1; conditions: Human immunodeficiency virus 1, C8166, 72 h, read-out: EC50 WT RT
Description: as §1

HIV-1 RT K103N/Y181C = biological target: T5, HIV-1 RT K103N/Y181C (Human immunodeficiency virus type 1 group M subtype B, UniProt P03366, K702N/Y780C); test: Reverse transcriptase (RT) assay, K103N/Y181C mutant; type: biochemical
T5 construct: an HIV RT clone pKRT2 containing only the RT p66 gene regulated by the lac operon/trc promoter; made in house; host or cells: E. coli JM109, vector pKK233-2
Description: as §2, §3, §4, §5

HIV-1 RT Y188L = biological target: T6, HIV-1 RT Y188L (Human immunodeficiency virus type 1 group M subtype B, UniProt P03366, Y787L); test: Reverse transcriptase (RT) assay, Y188L mutant; type: biochemical
T6 construct: an HIV RT clone pKRT2 containing only the RT p66 gene regulated by the lac operon/trc promoter; made in house; host or cells: E. coli JM109, vector pKK233-2
Description: as §2, §3, §4, §5

HIV-1 RT K103N = biological target: T7, HIV-1 RT K103N (Human immunodeficiency virus type 1 group M subtype B, UniProt P03366, K702N); test: Reverse transcriptase (RT) assay, K103N mutant; type: biochemical
T7 construct: an HIV RT clone pKRT2 containing only the RT p66 gene regulated by the lac operon/trc promoter; made in house; host or cells: E. coli JM109, vector pKK233-2
Description: as §2, §3, §4, §5

HIV-1 RT Y181C = biological target: T8, HIV-1 RT Y181C (Human immunodeficiency virus type 1 group M subtype B, UniProt P03366, Y780C); test: Reverse transcriptase (RT) assay, Y181C mutant; type: biochemical
T8 construct: an HIV RT clone pKRT2 containing only the RT p66 gene regulated by the lac operon/trc promoter; made in house; host or cells: E. coli JM109, vector pKK233-2
Description: as §2, §3, §4, §5

HIV-1 RT V106A = biological target: T9, HIV-1 RT V106A (Human immunodeficiency virus type 1 group M subtype B, UniProt P03366, V705A); test: Reverse transcriptase (RT) assay, V106A mutant; type: biochemical
T9 construct: an HIV RT clone pKRT2 containing only the RT p66 gene regulated by the lac operon/trc promoter; made in house; host or cells: E. coli JM109, vector pKK233-2
Description: as §2, §3, §4, §5

## CCN1c2ncc(CCOc3cc[n+]([O-])c4ccccc34)cc2C(=O)Nc2c(C)cc(F)nc21 [compound 9, 5,11-Dihydro-11-ethyl-2-fluoro-4-methyl-8-{2-{(1-oxido-4-quinolinyl)-oxy}ethyl}-6H-dipyrido[3,2-b:2′,3′-e][1,4]diazepin-6-one]
[1]
  EC50: 7.6 nM
[2]
  EC50: 118 nM
HIV-1 RT wild-type (WT)
  IC50: 14 nM
HIV-1 RT K103N/P225H
  IC50: 25 nM
HIV-1 RT K103N/L100I
  IC50: 88 nM
[3]
  EC50: 5 nM
HIV-1 RT K103N/V108I
  IC50: 58 nM
[4]
  EC50: 0.92 nM
HIV-1 RT K103N/Y181C
  IC50: 175 nM
HIV-1 RT Y188L
  IC50: 3390 nM
HIV-1 RT K103N
  IC50: 23 nM
HIV-1 RT Y181C
  IC50: 43 nM
HIV-1 RT V106A
  IC50: 98 nM

## CCN1c2ncc(CCOc3cc[n+]([O-])c4ccccc34)cc2C(=O)Nc2c(C)cc(Cl)nc21 [compound 14, 2-Chloro-5,11-dihydro-11-ethyl-4-methyl-8-{2-{(1-oxido-4-quinolinyl)-oxy}ethyl}-6H-dipyrido[3,2-b:2′,3′-e][1,4]diazepin-6-one]
HIV-1 RT wild-type (WT)
  IC50: 15 nM
HIV-1 RT K103N/P225H
  IC50: 30 nM
HIV-1 RT K103N/L100I
  IC50: 24 nM
HIV-1 RT K103N/V108I
  IC50: 59 nM
[4]
  EC50: 0.67 nM
HIV-1 RT K103N/Y181C
  IC50: 61 nM
HIV-1 RT Y188L
  IC50: 2300 nM
HIV-1 RT K103N
  IC50: 19 nM
HIV-1 RT Y181C
  IC50: 28 nM
HIV-1 RT V106A
  IC50: 77 nM

## CCN1c2ncc(CCOc3cccc4c3ccc[n+]4[O-])cc2C(=O)N(C)c2ccc(F)nc21 [compound 18, 5,11-Dihydro-11-ethyl-2-fluoro-5-methyl-8-{2-{(1-oxido-5-quinolinyl)-oxy}ethyl}-6H-dipyrido[3,2-b:2′,3′-e][1,4]diazepin-6-one]
[1]
  EC50: 9.5 nM
HIV-1 RT wild-type (WT)
  IC50: 11 nM
HIV-1 RT K103N/P225H
  IC50: 20 nM
HIV-1 RT K103N/L100I
  IC50: 158 nM
HIV-1 RT K103N/V108I
  IC50: 96 nM
[4]
  EC50: 0.34 nM
HIV-1 RT K103N/Y181C
  IC50: 146 nM
HIV-1 RT Y188L
  IC50: 1170 nM
HIV-1 RT K103N
  IC50: 37 nM
HIV-1 RT Y181C
  IC50: 41 nM
HIV-1 RT V106A
  IC50: 737 nM
